Each structure is given as a SMILES string. pIC50: −log10 of the molar value. Where a name gives a salt, the structure may show the parent alone.

For one data set, the target named is T1, human GPR40 (Homo sapiens, UniProt O14842).
T1 construct: expressed in transfected cells; host or cells: CHO(dhfr-) cells: line CHO-hGPR40 No. 104 of WO2004/041266, with a stably expressed NFAT-TA-Luc reporter (CHO(dhfr-)/GPR40-NFAT-Luc)
As to the kind of experiment: GPR40 antagonist activity with changes in intracellular calcium concentration as index (NFAT-luciferase reporter, CHO(dhfr-)/GPR40-NFAT-Luc cells). It counts as cell-based. The note with it: CHO cell line expressing human GPR40, NFAT-Luc reporter; GPR40 agonist 3-(4-((6-benzyloxy-2',6'-dimethyl-biphenyl-3-yl)methoxy)phenyl)propanoic acid 40 nM; 4 hr culture; 0.1% fatty acid-free BSA. From the text:
Evaluation of GPR40 antagonist activity with changes in intracellular calcium concentration as index
An assay system of GPR40 antagonist was established as follows. In this assay system, as the GPR40 agonist, 3-(4-((6-benzyloxy-2′,6′-dimethyl-biphenyl-3-yl)methoxy)phenyl)propanoic acid (compound described in Example 340 of WO2004/041266) was used.
First, NFAT-TA was cut out from pNFAT-TA-Luc (manufactured by BD Bioscience Clontech) with HindIII and NheI, the recovered fragment was inserted into pGL3 basic neo digested with HindIII and NheI to give plasmid:pGL3 basic neo NFAT-TA-Luc.
This plasmid was used for “the CHO cell line (CHO-hGPR40 No. 104), which was made to express human GPR40” described in WO2004/041266, and a cell line CHO(dhfr-)/GPR40-NFAT-Luc, wherein a reporter gene was stably expressed by a method known per se, was prepared.
This cell line was diluted with a medium (nucleic acid-free MEM (Minimum Essential Medium)—α medium added with dialyzed FBS (Fetal Bovine Serum) to a final concentration of 10%) in such a manner that 2×10^4 cells/100 μl would be contained, dispensed to a white walled 96 well plate (manufactured by Coster) by 100 μl per well, and cultured overnight in a CO2 incubator. Then the medium was removed by suction from the 96 well plate, and a 10 mM test compound-dimethyl sulfoxide (manufactured by Wako Pure Chemical Industries, Ltd.) solution diluted with a medium (nucleic acid-free MEM—α medium added with bovine serum albumin (BSA) free of fatty acid to a final concentration of 0.1%) to each concentration was added by 50 μl per well. Further, 3-(4-((6-benzyloxy-2′,6′-dimethyl-biphenyl-3-yl)methoxy)phenyl)propanoic acid diluted with a medium (nucleic acid-free MEM-α (medium added with BSA free of fatty acid to a final concentration of 0.1%) to a final concentration of 40 nM was added to the 96 well plate by 50 μl per well.
After culture in a CO2 incubator for 4 hr, the culture medium was removed from the 96 well plate. Then, PicaGene (manufactured by TOYO INK MFG. CO., LTD.) was added to the 96 well plate, and the luciferase activity was determined using PerkinElmer ARVO (trade name, manufactured by PerkinElmer), based on which changes in the intracellular calcium concentration were evaluated. After assay of luciferase activity, nonlinear regression analysis was performed using PRISM 3 (trade name, manufactured by GraphPad) and IC50 value was calculated with changes in the intracellular calcium concentration as an index.
In the same manner as in Experimental Example 1, the IC50 value of the compound of the present invention was calculated.
A general note: Calcium flux is commonly read through the fluorescence of an indicator in the cells.

T1 sequence (O14842 whole entry): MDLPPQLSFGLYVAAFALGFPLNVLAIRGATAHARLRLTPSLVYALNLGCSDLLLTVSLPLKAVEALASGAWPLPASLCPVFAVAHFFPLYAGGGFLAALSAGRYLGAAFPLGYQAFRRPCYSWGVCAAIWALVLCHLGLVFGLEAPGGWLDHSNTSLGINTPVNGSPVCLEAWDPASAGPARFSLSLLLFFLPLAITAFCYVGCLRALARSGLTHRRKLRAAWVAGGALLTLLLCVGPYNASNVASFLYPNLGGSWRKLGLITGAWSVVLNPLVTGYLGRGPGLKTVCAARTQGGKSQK

The term pIC50 denotes −log10 of the IC50, conventionally taken in molar units. As usually defined, the melting point is the temperature, or range, at which the solid turns liquid. Molecule `COCOc1ccc(-n2c(SCc3ccc(Cl)cc3)nc3ccc(Cl)cc32)cc1` [Example 7, 6-Chloro-2-[(4-chlorobenzyl)thio]-1-[4-(methoxymethoxy)phenyl]-1H-benzimidazole] registered a melting point of 109 to 110 °C. Moreover, the negative logarithm of the IC50 (pIC50) at human GPR40 was over 7.00.
In turn, `COCOc1ccc(-n2c(SCc3ccc(Br)cc3)nc3ccc(Cl)cc32)cc1` [Example 8, 2-[(4-Bromobenzyl)thio]-6-chloro-1-[4-(methoxymethoxy)phenyl]-1H-benzimidazole] gave a melting point of 123 to 124 °C. Moreover, the pIC50 at human GPR40 is over 7.00.
The molecule `CCCOc1ccc(-n2c(SCc3ccc(Cl)cc3)nc3ccc(Cl)cc32)cc1` [Example 12, 6-Chloro-2-[(4-chlorobenzyl)thio]-1-(4-propoxyphenyl)-1H-benzimidazole] registered a melting point of 102 to 103 °C. The pIC50 on human GPR40 was over 7.00.
For `CCOc1ccc(-n2c(SCc3ccc(C(F)(F)F)cc3)nc3ccc(Cl)cc32)cc1` [Example 33, 6-Chloro-1-(4-ethoxyphenyl)-2-{[4-(trifluoromethyl)benzyl]thio}-1H-benzimidazole] the same measures were 103 to 104 °C and over 7.00.
Taken in the same sequence, the figures for `CCOc1ccc(-n2c(SCc3ccc(C(F)(F)F)nc3)nc3ccc(Cl)cc32)cc1` [Example 36, 6-chloro-1-(4-ethoxyphenyl)-2-({[6-(trifluoromethyl)pyridin-3-yl]methyl}thio)-1H-benzimidazole] were 104 to 105 °C and over 7.00.
With `CCOc1ccc(-n2c(SCc3ccc(C(C)(C)C)cc3)nc3ccc(Cl)cc32)cc1` [Example 38, 2-[(4-tert-butylbenzyl)thio]-6-chloro-1-(4-ethoxyphenyl)-1H-benzimidazole], the melting point lay within 142 to 143 °C. At human GPR40, the negative-log IC50 (pIC50) is over 7.00.
Molecule `CCOc1ccc(-n2c(NCc3ccc(Cl)cc3)nc3ccc(Cl)cc32)cc1` [Example 47, 6-Chloro-N-(4-chlorobenzyl)-1-(4-ethoxyphenyl)-1H-benzimidazol-2-amine] showed a melting point of 135 to 136 °C. Moreover, on human GPR40, the negative-log IC50 (pIC50) was over 7.00.
Turning to `CCOc1ccc(-n2c(SCc3ccc(Cl)cc3)nc3cc(Cl)ccc32)cc1` [Example 65, 5-Chloro-2-[(4-chlorobenzyl)thio]-1-(4-ethoxyphenyl)-1H-benzimidazole hydrochloride], the pIC50 at human GPR40 is over 7.00.
`FC(F)(F)COc1ccc(-n2c(SCc3ccc(Cl)cc3)nc3cc(Cl)ccc32)cc1` [Example 67, 5-chloro-2-[(4-chlorobenzyl)thio]-1-[4-(2,2,2-trifluoroethoxy)phenyl]-1H-benzimidazole]: the pIC50 at human GPR40 is over 7.00.
For the molecule `CCOc1ccc(-n2c(NC(C)c3ccc(Br)cc3)nc3ccc(Cl)cc32)cc1` (stereo not drawn) [Example 71, N-[1-(4-Bromophenyl)ethyl]-6-chloro-1-(4-ethoxyphenyl)-1H-benzimidazol-2-amine], the negative-log IC50 (pIC50) at human GPR40 was over 7.00.
As for `COc1ccc(-n2c(NCc3ccc(C(C)(C)C)cc3)nc3ccc(Cl)cc32)cc1` [Example 72, N-(4-tert-Butylbenzyl)-6-chloro-1-(4-methoxyphenyl)-1H-benzimidazol-2-amine], the melting point lay within 208 to 209 °C. For the same molecule, the pIC50 at human GPR40 is over 7.00.
Molecule `CCCOc1ccc(-n2c(NCc3ccc(C(C)(C)C)cc3)nc3ccc(Cl)cc32)cc1` [Example 73, N-(4-tert-Butylbenzyl)-6-chloro-1-(4-propoxyphenyl)-1H-benzimidazol-2-amine] gave a melting point of 98 to 100 °C. The negative-log IC50 (pIC50) on human GPR40 was over 7.00.
Taken in the same sequence, the figures for `CCCOc1ccc(-n2c(NCc3ccc(Cl)cc3)nc3ccc(Cl)cc32)cc1` [Example 74, 6-Chloro-N-(4-chlorobenzyl)-1-(4-propoxyphenyl)-1H-benzimidazol-2-amine] were 130 to 131 °C and over 7.00.
For `CCCCOc1ccc(-n2c(NCc3ccc(C(C)(C)C)cc3)nc3ccc(Cl)cc32)cc1` [Example 75, 1-(4-Butoxyphenyl)-N-(4-tert-butylbenzyl)-6-chloro-1H-benzimidazol-2-amine], the pIC50 at human GPR40 is over 7.00.
`CCCCOc1ccc(-n2c(NCc3ccc(Cl)cc3)nc3ccc(Cl)cc32)cc1` [Example 76, 1-(4-Butoxyphenyl)-6-chloro-N-(4-chlorobenzyl)-1H-benzimidazol-2-amine] gave a melting point of 122 to 123 °C. The pIC50 at human GPR40 is over 7.00.
`CC(C)(C)c1ccc(CNc2nc3ccc(Cl)cc3n2-c2ccc(OCC(F)(F)F)cc2)cc1` [Example 78, N-(4-tert-Butylbenzyl)-6-chloro-1-[4-(2,2,2-trifluoroethoxy)phenyl]-1H-benzimidazol-2-amine] registered a melting point of 151 to 152 °C. The negative logarithm of the IC50 (pIC50) at human GPR40 is over 7.00.
`CC(C)(C)c1ccc(CNc2nc3ccc(Cl)cc3n2-c2ccc(OC(F)(F)F)cc2)cc1` [Example 80, N-(4-tert-Butylbenzyl)-6-chloro-1-[4-(trifluoromethoxy)phenyl]-1H-benzimidazol-2-amine]: the melting point fell in the range of 181 to 182 °C. At human GPR40, the negative logarithm of the IC50 (pIC50) was over 7.00.
For `CCOc1ccc(-n2c(NCc3ccc(C(C)(C)C)cc3)nc3cc(Cl)ccc32)cc1` [Example 81, N-(4-tert-Butylbenzyl)-5-chloro-1-(4-ethoxyphenyl)-1H-benzimidazol-2-amine] the same measures were 211 to 212 °C and over 7.00.
For `CCOc1ccc(-n2c(NCc3ccc(Cl)cc3)nc3cc(Cl)ccc32)cc1` [Example 82, 5-Chloro-N-(4-chlorobenzyl)-1-(4-ethoxyphenyl)-1H-benzimidazol-2-amine], the melting point fell in the range of 109 to 110 °C. Moreover, on human GPR40, the negative-log IC50 (pIC50) was over 7.00.
`CCCOc1ccc(-n2c(NCc3ccc(C(C)(C)C)cc3)nc3cc(Cl)ccc32)cc1` [Example 83, N-(4-tert-Butylbenzyl)-5-chloro-1-(4-propoxyphenyl)-1H-benzimidazol-2-amine] yielded a melting point of 190 to 191 °C. In addition, the negative logarithm of the IC50 (pIC50) on human GPR40 is over 7.00.
For `CCCCOc1ccc(-n2c(NCc3ccc(C(C)(C)C)cc3)nc3cc(Cl)ccc32)cc1` [Example 86, 1-(4-Butoxyphenyl)-N-(4-tert-butylbenzyl)-5-chloro-1H-benzimidazol-2-amine] the same measures were 158 to 159 °C and over 7.00.
The molecule `CC(C)(C)c1ccc(CNc2nc3cc(Cl)ccc3n2-c2ccc(OCC(F)(F)F)cc2)cc1` [Example 89, N-(4-tert-Butylbenzyl)-5-chloro-1-[4-(2,2,2-trifluoroethoxy)phenyl]-1H-benzimidazol-2-amine] had a melting point of 190 to 191 °C. Moreover, the negative logarithm of the IC50 (pIC50) at human GPR40 is over 7.00.
Take `COc1ccc(-n2c(NCc3ccc(C(C)(C)C)cc3)nc3cc(Cl)c(Cl)cc32)cc1` [Example 92, N-(4-tert-Butylbenzyl)-5,6-dichloro-1-(4-methoxyphenyl)-1H-benzimidazol-2-amine]: the pIC50 on human GPR40 was over 7.00.
The molecule `CCOc1ccc(-n2c(NCc3ccc(C(C)(C)C)cc3)nc3cc(Cl)c(Cl)cc32)cc1` [Example 93, N-(4-tert-Butylbenzyl)-5,6-dichloro-1-(4-ethoxyphenyl)-1H-benzimidazol-2-amine] showed a melting point of 186 to 187 °C. In addition, the negative-log IC50 (pIC50) at human GPR40 was over 7.00.
On to `CCOc1ccc(-n2c(NCc3ccc(Cl)cc3)nc3cc(Cl)c(Cl)cc32)cc1` [Example 94, 5,6-Dichloro-N-(4-chlorobenzyl)-1-(4-ethoxyphenyl)-1H-benzimidazol-2-amine], for which the melting point is 141 to 142 °C. In addition, the negative logarithm of the IC50 (pIC50) on human GPR40 is over 7.00.
Molecule `CCOc1ccc(-n2c(NCc3ccc(Br)cc3)nc3cc(Cl)c(Cl)cc32)cc1` [Example 95, N-(4-Bromobenzyl)-5,6-dichloro-1-(4-ethoxyphenyl)-1H-benzimidazol-2-amine] yielded a melting point of 92 to 93 °C. For the same molecule, on human GPR40, the pIC50 was over 7.00.
For `CCCCOc1ccc(-n2c(NCc3ccc(C(C)(C)C)cc3)nc3cc(Cl)c(Cl)cc32)cc1` [Example 99, 1-(4-butoxyphenyl)-N-(4-tert-butylbenzyl)-5,6-dichloro-1H-benzimidazol-2-amine], on human GPR40, the pIC50 was over 7.00.
